Holding throughout (assay): Growth inhibition of yeast, IC 50% determination
Assay type in all cases: cell-based

The test system of one assay is Metschnikowia pulch. The settings on record: Metschnikowia pulch (pathogen -). The text has this: (§1) One method of determining the microbiological activity of the compounds according to the invention on yeasts is the determination of the inhibitory concentration 50% (IC 50%).
For the next assay, the system named is Cand. curvata. The settings on record: Cand. curvata (pathogen +).
Description: as §1

For the next assay, the system named is Hansenula anomala. The settings on record: Hansenula anomala (pathogen -).
Description: as §1

The test system of a further assay is Cand. parapsilosis. The settings on record: Lodderomyces parapsilosis; Cand. parapsilosis (pathogen +).
Description: as §1

In another assay the test system is Cand. krusei. The settings on record: Pichia kudriavzevii; Cand. krusei (pathogen +).
Description: as §1

In assay [1] the test system is Cryptococcus neoformans 2. The settings on record: Cryptococcus neoformans 2 (pathogen +).
Description: as §1

A further assay relates to Cand. pseudotropicalis. The settings on record: Kluyveromyces marxianus; Cand. pseudotropicalis (pathogen +).
Description: as §1

A further assay relates to Sacch. rouxii. The settings on record: Sacch. rouxii (pathogen (+)).
Description: as §1

In a further assay the test system is Sacch. fragilis. The settings on record: Sacch. fragilis (pathogen (+)).
Description: as §1

The subject of the next assay is Rhodotorula spec. The settings on record: Rhodotorula spec. (pathogen -).
Description: as §1

The subject of the next assay is Cand. albicans. The settings on record: Candida albicans; Cand. albicans (pathogen +).
Description: as §1

For the next assay, the system named is Sacch. cerevisiae 2. The settings on record: Saccharomyces cerevisiae; Sacch. cerevisiae 2 (pathogen (+)).
Description: as §1

The subject of another assay is Geotrichum capitum. The settings on record: Geotrichum capitum (pathogen +).
Description: as §1

A further assay concerns Sacch. uvarum. The settings on record: Sacch. uvarum (pathogen (+)).
Description: as §1

The subject of a further assay is Sacch. cerevisiae 1. The settings on record: Saccharomyces cerevisiae; Sacch. cerevisiae 1 (pathogen (+)).
Description: as §1

The subject of assay [2] is Cryptococcus neoformans 1. The settings on record: Cryptococcus neoformans 1 (pathogen +).
Description: as §1

≈ marks a conversion by molar mass, not a printed value.

With `CSC(=NC#N)N1CCN(c2ccc(OC[C@H]3CO[C@](Cn4ccnc4)(c4ccc(Cl)cc4Cl)O3)cc2)CC1` (relative stereo) [Example 2, cis-1-Cyanimino-methylthio-methylene-4-[4[[2-(2,4-dichlorophenyl)-2-(1H-imidazol-1-ylmethyl)-1,3-dioxolan-4-yl]-methoxy]-phenyl]-piperazine], the half-maximal inhibitory concentration (IC50) in the assay on Metschnikowia pulch came to 0.00125 µg/mL (≈ 0.00213 µM); in the assay on Cand. curvata, 0.125 µg/mL (≈ 0.213 µM); in the assay on Hansenula anomala, 0.00125 µg/mL (≈ 0.00213 µM); in the assay on Cand. parapsilosis, 0.0125 µg/mL (≈ 0.0213 µM); in the assay with Cand. krusei, 0.125 µg/mL (≈ 0.213 µM); in assay [1], 0.125 µg/mL (≈ 0.213 µM). Moreover, the IC50 in the assay on Cand. pseudotropicalis is 0.00125 µg/mL (≈ 0.00213 µM); in the assay with Sacch. rouxii, 0.00125 µg/mL (≈ 0.00213 µM); with Sacch. fragilis, 0.0125 µg/mL (≈ 0.0213 µM); in the assay on Rhodotorula spec., 1.25 µg/mL (≈ 2.13 µM); with Cand. albicans, 0.00125 µg/mL (≈ 0.00213 µM); in the assay on Sacch. cerevisiae 2, 1.25 µg/mL (≈ 2.13 µM). The IC50 with Geotrichum capitum is 0.125 µg/mL (≈ 0.213 µM); with Sacch. uvarum, 1.25 µg/mL (≈ 2.13 µM); in the assay on Sacch. cerevisiae 1 it was 1.25 µg/mL (≈ 2.13 µM); in assay [2], 0.0125 µg/mL (≈ 0.0213 µM).
